Data: patent publication US4609736A, “Rhodanines useful as a therapeutic agent for diabetic complications” (Kaken Pharmaceutical Co., Ltd., priority 1983, dated 1986)
Where two headings read alike, the source gives them in different places.

Tests used:
aldose reductase = biological target: T1, aldose reductase (Rattus norvegicus, UniProt P07943); experiment: Aldose reductase inhibiting activity; type: biochemical, rat (Wistar strain male, eye lens); conditions: rat lens crude enzyme; DL-glyceraldehyde 10 mM, NADPH 0.104 mM, pH 6.2; Table 3; read-out: IC50 (50% inhibition concentration), aldose reductase
T1 construct: the supernatant was used as the crude enzyme solution; from tissue; host or cells: eye lens of male Wistar rats, 10,000 g supernatant of the homogenate
Method: Thus, Wistar strain male rats were sacrificed by decapitation, the lenses were excised and homogenized with a 0.1M phosphate buffer [pH 6.8; containing 1 mM of mercaptoethanol and 1 mM of nicotinamide-adenine dinucleotide phosphate (NADP)]. The homogenate was then centrifuged at 10,000 g for 15 minutes and the supernatant was used as the crude enzyme solution.
To this buffer solution, there was added 15 μl of each of solutions of each test compound in varied concentrations, followed by addition of 25 μl of the crude enzyme solution prepared in advance, to thereby initiate the reaction.

[1] = Acute toxicity in mice (oral); conditions: mouse, in vivo, oral gavage in 10% gum arabic, 2 weeks
[2] = system: thrombin-induced aggregation of washed rabbit platelets; experiment: Platelet aggregation inhibiting activity (thrombin-induced aggregation of washed rabbit platelets); type: cell-based, rabbit (albino, white local breed); conditions: for IC50: Oryctolagus cuniculus, Platelet, Table 2; for platelet aggregation inhibiting activity relative to Dipyridamole (Persantine): times that of Dipyridamole
Method: Blood samples were collected from the auricular blood vessel of albino rabbits (white local breed), and washed platelets were prepared therefrom by the method of Baenziger et al. [N. L. Baenziger and P. W. Majerus, Methods in Enzymology, 31, 149 to 155 (1974)]. The platelets were suspended in a 15 mM Tris-hydrochloric acid buffer in a final concentration of 6×10^8 cells/ml (Tris: tris(hydroxymethyl)aminomethane). Each test compound was added thereto and incubation was carried out at 37° C. for 2 minutes. Then, the platelets were stimulated by addition of thrombin (final concentration 0.2 unit/ml; made by Mochida Pharmaceutical Co.) and the aggregation inhibiting activity was estimated by observation of the aggregation reaction using an aggregometer (made by Briston Co.).
The results obtained are shown in Table 2 in terms of IC50 (50% inhibition concentration in M).

[3] = 2 min, washed rabbit platelets 6×10^8 cells/ml, thrombin 0.2 unit/ml, 37° C., 2 minutes incubation, read-out: IC50 (50% inhibition concentration), platelet aggregation
[4] = read-out: concentration that inhibited the thrombin-induced aggregation of washed rabbit platelets by 50%

For CC(C)=CCCC(C)=CCCC(C)=CCCC(C)=CC=C1SC(=S)N(CC(=O)O)C1=O [Compound No. 13, 3-Carboxymethyl-5-(3,7,11,15-tetramethyl-2,6,10,14-hexadecatetraenylidene)rhodanine], the IC50 (aldose reductase) was 0.65 µM, the LD50 at 336 h [1] was 3500 to 5000 mg/kg and the “platelet aggregation inhibiting activity (in words)” value [2] was “noticeably strong platelet aggregation inhibiting activity”. For the same molecule, the IC50 [2, 3] was 40 µM, the IC50 [2, 4] was 20 to 40 µM and the “platelet aggregation inhibiting activity relative to Dipyridamole (Persantine)” value [2] was “about 10 times”.
In the case of CCCCCCCCCCC=C1SC(=S)N(CC(=O)O)C1=O [compound 4, 3-Carboxymethyl-5-undecylidenerhodanine], the IC50 (aldose reductase) is reported as 0.3 µM and the IC50 [2, 3] is reported as over 300 µM.
In the case of O=C(O)CN1C(=O)C(=CCCCCl)SC1=S [compound 2, 3-Carboxymethyl-5-(4-chlorobutylidene)rhodanine], the IC50 (aldose reductase) is reported as 0.14 µM and the IC50 [2, 3] is reported as over 300 µM.
CC(C)(C)C=C1SC(=S)N(CC(=O)O)C1=O [compound 3, 3-Carboxymethyl-5-(2,2-dimethylpropylidene)rhodanine] showed an IC50 (aldose reductase) of 0.1 µM and an IC50 [2, 3] of over 300 µM.
With CC(C)=CC=C1SC(=S)N(CC(=O)O)C1=O [compound 9, 3-Carboxymethyl-5-(3-methyl-2-butenylidene)rhodanine] the IC50 (aldose reductase) was 0.1 µM and the IC50 [2, 3] was over 400 µM.
Molecule CCCCCC=C1SC(=S)N(CC(=O)O)C1=O [compound 5, 3-Carboxymethyl-5-n-hexylidenerhodanine] has an IC50 (aldose reductase) of 0.13 µM and an IC50 [2, 3] of over 300 µM.
For C=CC=C1SC(=S)N(CC(=O)O)C1=O [Compound No. 6, 3-Carboxymethyl-5-allylidenerhodanine], the IC50 (aldose reductase) was 0.75 µM, the “platelet aggregation inhibiting activity (in words)” value [2] was “noticeably strong platelet aggregation inhibiting activity” and the IC50 [2, 3] was 30 µM. For the same molecule, the IC50 [2, 4] was 20 to 40 µM and the “platelet aggregation inhibiting activity relative to Dipyridamole (Persantine)” value [2] was “about 10 times”.
In the case of O=C(O)CN1C(=O)C(=CC=CCCl)SC1=S [Compound No. 8, 3-Carboxymethyl-5-(4-chloro-2-butenylidene)rhodanine], the IC50 (aldose reductase) is reported as 0.13 µM, the “platelet aggregation inhibiting activity (in words)” value [2] is reported as “noticeably strong platelet aggregation inhibiting activity” and the IC50 [2, 3] is reported as 20 µM. The IC50 [2, 4] was 20 to 40 µM and the “platelet aggregation inhibiting activity relative to Dipyridamole (Persantine)” value [2] was “about 10 times”.
Molecule CCC=C1SC(=S)N(CC(=O)O)C1=O [Compound No. 1, 3-Carboxymethyl-5-propylidenerhodanine] has an IC50 (aldose reductase) of 0.2 µM and an IC50 [2, 3] of over 300 µM.
With CCCC=CC=C1SC(=S)N(CC(=O)O)C1=O [Compound No. 10, 3-Carboxymethyl-5-(2-hexenylidene)rhodanine] the IC50 (aldose reductase) was 0.04 µM, the LD50 at 336 h [1] was 3500 to 5000 mg/kg and the “platelet aggregation inhibiting activity (in words)” value [2] was “noticeably strong platelet aggregation inhibiting activity”. For the same molecule, the IC50 [2, 3] was 30 µM, the IC50 [2, 4] was 20 to 40 µM and the “platelet aggregation inhibiting activity relative to Dipyridamole (Persantine)” value [2] was “about 10 times”.
With CC=CC=CC=C1SC(=S)N(CC(=O)O)C1=O [Compound No. 11, 3-Carboxymethyl-5-(2,4-hexadienylidene)rhodanine] the IC50 (aldose reductase) was 0.046 µM, the LD50 at 336 h [1] was 3500 to 5000 mg/kg and the “platelet aggregation inhibiting activity (in words)” value [2] was “noticeably strong platelet aggregation inhibiting activity”. For the same molecule, the IC50 [2, 3] was 20 µM, the IC50 [2, 4] was 20 to 40 µM and the “platelet aggregation inhibiting activity relative to Dipyridamole (Persantine)” value [2] was “about 10 times”.
For CC=CC=C1SC(=S)N(CC(=O)O)C1=O [Compound No. 7, 3-Carboxymethyl-5-(2-butenylidene)rhodanine], the IC50 (aldose reductase) was 0.07 µM, the LD50 at 336 h [1] was 3500 to 5000 mg/kg and the “platelet aggregation inhibiting activity (in words)” value [2] was “noticeably strong platelet aggregation inhibiting activity”. The IC50 [2, 3] was 20 µM, the IC50 [2, 4] was 20 to 40 µM and the “platelet aggregation inhibiting activity relative to Dipyridamole (Persantine)” value [2] was “about 10 times”.
CC(C)=CCCC(C)=CC=C1SC(=S)N(CC(=O)O)C1=O [compound 12, 3-Carboxymethyl-5-(3,7-dimethyl-2,6-octadienylidene)rhodanine] gave an LD50 at 336 h [1] of 3500 to 5000 mg/kg and an IC50 [2, 3] of over 300 µM.
